The results in this text go back to patent US11981686B2, “Urea compound having substituent” (DAIICHI SANKYO COMPANY, LIMITED, priority 2019, dated 2024).

Each structure is given as a SMILES string.

The target of this assay is SIRT6 enzyme (Homo sapiens, UniProt Q8N6T7). In words: Measurement of deacetylation activity (SIRT6, AlphaLISA, H3K9(Ac) peptide). The note with it: SIRT6 25 ng/mL, H3K9(Ac) biotin peptide 2 nM, NAD 10 μM, room temperature 30 minutes, duplicate. Type of assay: biochemical. As for the experimental part: The reaction was performed in duplicate using a white 384-well plate (3824, Corning or 6008350, PerkinElmer) at a final reaction liquid volume of 20.1 μL. As a control for calculating the enzyme activity, the enzyme-added (DMSO (+)) and enzyme-free (DMSO (−)) wells were set at n=8. Test substances (examples of final concentrations: 0.046, 0.14, 0.41, 1.2, 3.7, 11, 33, and 100 μM) at a concentration of 100 times or 0.1 μL of DMSO was dispensed into the plate and 5 μL of SIRT6 enzyme (prepared by Daiichi Sankyo RD Novare Co., Ltd., final concentration: 25 ng/mL) diluted with an assay buffer (10 mM Tris-HCl pH of 8.0, 0.1% BSA, 0.01% Tween 20, 1 mM DTT, 12.5% Glycerol) was added thereto. The enzymatic reaction was started by adding 5 μL of a mixed solution [Lys(Ac)9]-Histone H3 (1-21)-NH2, H3K9 (Ac), biotin-labeled, amide (AnaSpec, AS-64190, final concentration: 2 nM) and β-nicotinamide adenine dinucleotide (Sigma-Aldrich, N8285-15VL, final concentration: 10 μM), and the reaction was performed at room temperature for 30 minutes. 10 μL of a mixed solution of nicotinamide (Sigma-Aldrich, 72340-100G, final concentration: 100 mM) prepared with AlphaLISA Epigenetics Buffer (PerkinElmer, AL008C), AlphaLISA Anti-unmodified Histone H3 Lysine 9/Lysine 27 (H3K9/K27) Acceptor Beads (PerkinElmer, AL138, final concentration: 10 μg/mL), and AlphaScreen Streptavidin Donor beads (PerkinElmer, 6760002, final concentration: 5 μg/mL) was added thereto, the reaction was performed at room temperature for 60 minutes and then stopped, and acetylation was detected. The emission intensity was measured by EnVision (PerkinElmer).
SIRT6 enzyme, sequence (Q8N6T7 whole entry, species assumed): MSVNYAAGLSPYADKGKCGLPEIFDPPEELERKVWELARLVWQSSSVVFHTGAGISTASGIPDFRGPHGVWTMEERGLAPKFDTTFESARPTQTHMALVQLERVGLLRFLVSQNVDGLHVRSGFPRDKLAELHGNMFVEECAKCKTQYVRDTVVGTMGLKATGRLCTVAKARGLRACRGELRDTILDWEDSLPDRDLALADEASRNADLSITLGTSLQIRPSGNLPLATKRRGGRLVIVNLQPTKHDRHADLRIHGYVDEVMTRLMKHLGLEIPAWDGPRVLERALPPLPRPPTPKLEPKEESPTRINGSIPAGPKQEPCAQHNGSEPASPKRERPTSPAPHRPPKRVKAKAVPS
The relative enzyme activity (%) of the test substance was calculated by the following equation. Relative enzyme activity (%)=[(emission intensity of test substance-added well−emission intensity of DMSO (−) well)/(emission intensity of DMSO (+) well−emission intensity of DMSO (−) well)]×100
The EC150 (the concentration of the compound showing a relative enzyme activity of 150%) of the test substance was calculated based on Sigmoidal dose-response (variable slope) of GraphPad Prism (GraphPad Software) using the value of the relative enzyme activity (%) at each concentration, and the results are listed in Tables 1-1 to 1-5.
`COc1cccc(-c2cnc(N3[C@@H]4COC[C@H]3c3sc(NC(=O)N[C@H](C)CO)nc3C4)o2)n1` [Example 67, N-[(2R)-1-hydroxypropan-2-yl]-N′-{(4S,8S)-10-[5-(6-methoxypyridin-2-yl)-1,3-oxazol-2-yl]-4,7,8,9-tetrahydro-5H-4,8-epiminooxocino[5,4-d][1,3]thiazol-2-yl}urea]: the “EC150 (the concentration of the compound showing a relative enzyme activity of 150%)” value was 0.75 μm.

`CNC(=O)Nc1nc2c(s1)C1CN(C(=O)OC)CC(C2)N1c1nc(C23CCC(F)(CC2)C3)no1` (centres unmarked) [Example 133, Methyl 10-[3-(4-fluorobicyclo[2.2.1]heptan-1-yl)-1,2,4-oxadiazol-5-yl]-2-[(methylcarbamoyl)amino]-4,7,8,9-tetrahydro-4,8-epimino[1,3]thiazolo[5,4-d]azocin-6(5H)-carboxylate]: the “EC150 (the concentration of the compound showing a relative enzyme activity of 150%)” value amounted to 1.4 μm.

With `CC(C)(CO)NC(=O)Nc1nc2c(s1)[C@@H]1COC[C@H](C2)N1c1cc(-c2ccc(F)cc2)on1` [Example 160, N-{(4S,8S)-10-[5-(4-fluorophenyl)-1,2-oxazol-3-yl]-4,7,8,9-tetrahydro-5H-4,8-epiminooxocino[5,4-d][1,3]thiazol-2-yl}-N′-(1-hydroxy-2-methylpropan-2-yl)urea], the “EC150 (the concentration of the compound showing a relative enzyme activity of 150%)” value was 3.2 μm.

Regarding `COc1cccc(-c2cnc(N3[C@@H]4COC[C@H]3c3sc(NC(=O)N[C@H]5CC[C@H](O)CC5)nc3C4)o2)n1` [Example 188, N-[(1r,4r)-4-hydroxycyclohexyl]-N′-{(4S,8S)-10-[5-(6-methoxypyridin-2-yl)-1,3-oxazol-2-yl]-4,7,8,9-tetrahydro-5H-4,8-epiminooxocino[5,4-d][1,3]thiazol-2-yl}urea], the “EC150 (the concentration of the compound showing a relative enzyme activity of 150%)” value worked out at 0.4 μm.

Regarding `COc1cc2nc(N3[C@@H]4COC[C@H]3c3sc(NC(=O)NCC(C)(C)O)nc3C4)oc2cc1C` [Example 44, N-(2-hydroxy-2-methylpropyl)-N′-[(4S,8S)-10-(5-methoxy-6-methyl-1,3-benzoxazol-2-yl)-4,7,8,9-tetrahydro-5H-4,8-epiminooxocino[5,4-d][1,3]thiazol-2-yl]urea], the “EC150 (the concentration of the compound showing a relative enzyme activity of 150%)” value turned out to be 2.3 μm.

Regarding `CC(=O)N1CC2Cc3nc(NC(=O)N[C@@H]4CCOC4)sc3C(C1)N2c1nc(-c2ccc(F)cc2)no1` (stereo partly drawn) [Example 140, N-{6-acetyl-10-[3-(4-fluorophenyl)-1,2,4-oxadiazol-5-yl]-4,5,6,7,8,9-hexahydro-4,8-epimino[1,3]thiazolo[5,4-d]azocin-2-yl}-N′-[(3R)-oxolan-3-yl]urea], the “EC150 (the concentration of the compound showing a relative enzyme activity of 150%)” value is recorded as 0.16 μm.

On to `CC(C)(O)CNC(=O)Nc1nc2c(s1)CN(c1nc(C3CCCC(F)(F)C3)no1)CC2` (centres unmarked) [Example 28, N-{5-[3-(3,3-difluorocyclohexyl)-1,2,4-oxadiazol-5-yl]-4,5,6,7-tetrahydro[1,3]thiazolo[5,4-c]pyridin-2-yl}-N′-(2-hydroxy-2-methylpropyl)urea], for which the “EC150 (the concentration of the compound showing a relative enzyme activity of 150%)” value turned out to be 2.1 μm.

Regarding `CS(=O)(=O)N1CC2Cc3nc(NC(=O)NC4CCOCC4)sc3C(C1)N2c1nc(-c2ccc(F)cc2)no1` (centres unmarked) [Example 30, N-{10-[3-(4-fluorophenyl)-1,2,4-oxadiazol-5-yl]-6-(methanesulfonyl)-4,5,6,7,8,9-hexahydro-4,8-epimino[1,3]thiazolo[5,4-d]azocin-2-yl}-N′-oxan-4-ylurea], the “EC150 (the concentration of the compound showing a relative enzyme activity of 150%)” value was 0.18 μm.

On to `[2H]C([2H])([2H])Oc1ccc2oc(N3[C@@H]4COC[C@H]3c3sc(NC(=O)N[C@@H]5CCOC5)nc3C4)nc2c1` [Example 77, N-[(4S,8S)-10-{5-[(^2H3)methyloxy]-1,3-benzoxazol-2-yl}-4,7,8,9-tetrahydro-5H-4,8-epiminooxocino[5,4-d][1,3]thiazol-2-yl]-N′-[(3R)-oxolan-3-yl]urea], for which the “EC150 (the concentration of the compound showing a relative enzyme activity of 150%)” value is on record as 0.79 μm.

Consider `C[C@H](CO)NC(=O)Nc1nc2c(s1)[C@@H]1COC[C@H](C2)N1c1ncc(-c2cccc(OC(F)F)c2)o1` [Example 70, N-[(4S,8S)-10-{5-[3-(difluoromethoxy)phenyl]-1,3-oxazol-2-yl}-4,7,8,9-tetrahydro-5H-4,8-epiminooxocino[5,4-d][1,3]thiazol-2-yl]-N′-[(2R)-1-hydroxypropan-2-yl]urea], for which the “EC150 (the concentration of the compound showing a relative enzyme activity of 150%)” value came to 0.45 μm.

With `COc1ccc2oc(N3CCc4nc(NC(=O)N[C@H](C)CO)sc4C3)nc2c1` [Example 189, N-[(2R)-1-hydroxypropan-2-yl]-N′-[5-(5-methoxy-1,3-benzoxazol-2-yl)-4,5,6,7-tetrahydro[1,3]thiazolo[5,4-c]pyridin-2-yl]urea], the “EC150 (the concentration of the compound showing a relative enzyme activity of 150%)” value turned out to be 0.38 μm.

In the case of `CC(OCC(F)(F)F)c1noc(N2CCc3nc(NC(=O)N[C@H](C)CO)sc3C2)n1` (stereo partly drawn) [Example 89, N-[(2R)-1-hydroxypropan-2-yl]-N′-(5-{3-[1-(2,2,2-trifluoroethoxy)ethyl]-1,2,4-oxadiazol-5-yl}-4,5,6,7-tetrahydro[1,3]thiazolo[5,4-c]pyridin-2-yl)urea], the “EC150 (the concentration of the compound showing a relative enzyme activity of 150%)” value stood at 2.9 μm.

Regarding `C[C@H](CO)NC(=O)Nc1nc2c(s1)[C@@H]1COC[C@H](C2)N1c1nc2cc(C(F)F)ccc2o1` [Example 56, N-{(4S,8S)-10-[5-(difluoromethyl)-1,3-benzoxazol-2-yl]-4,7,8,9-tetrahydro-5H-4,8-epiminooxocino[5,4-d][1,3]thiazol-2-yl}-N′-[(2R)-1-hydroxypropan-2-yl]urea], the “EC150 (the concentration of the compound showing a relative enzyme activity of 150%)” value is given as 0.19 μm.

`C[C@H](CO)NC(=O)Nc1nc2c(s1)[C@@H]1COC[C@H](C2)N1c1ncc(-c2cccc(C(F)F)c2)o1` [Example 71, N-[(4S,8S)-10-{5-[3-(difluoromethyl)phenyl]-1,3-oxazol-2-yl}-4,7,8,9-tetrahydro-5H-4,8-epiminooxocino[5,4-d][1,3]thiazol-2-yl]-N′-[(2R)-1-hydroxypropan-2-yl]urea]: the “EC150 (the concentration of the compound showing a relative enzyme activity of 150%)” value is on record as 0.34 μm.

`CNC(=O)Nc1nc2c(s1)CN(c1nc(C34CCC(F)(CC3)C4)no1)CC2` [Example 93, N-{5-[3-(4-fluorobicyclo[2.2.1]heptan-1-yl)-1,2,4-oxadiazol-5-yl]-4,5,6,7-tetrahydro[1,3]thiazolo[5,4-c]pyridin-2-yl}-N′-methylurea]: the “EC150 (the concentration of the compound showing a relative enzyme activity of 150%)” value turned out to be 0.7 μm.

Turning to `CNC(=O)Nc1nc2c(s1)C1CN(C(C)=O)CC(C2)N1c1nc(-c2cccc(F)c2)no1` (centres unmarked) [Example 138, N-{6-acetyl-10-[3-(3-fluorophenyl)-1,2,4-oxadiazol-5-yl]-4,5,6,7,8,9-hexahydro-4,8-epimino[1,3]thiazolo[5,4-d]azocin-2-yl}-N′-methylurea], the “EC150 (the concentration of the compound showing a relative enzyme activity of 150%)” value is given as 0.46 μm.

Turning to `Cc1cc2nc(N3[C@@H]4COC[C@H]3c3sc(NC(=O)N[C@H](C)CO)nc3C4)oc2cc1C` [Example 148, N-[(4S,8S)-10-(5,6-dimethyl-1,3-benzoxazol-2-yl)-4,7,8,9-tetrahydro-5H-4,8-epiminooxocino[5,4-d][1,3]thiazol-2-yl]-N′-[(2R)-1-hydroxypropan-2-yl]urea], the “EC150 (the concentration of the compound showing a relative enzyme activity of 150%)” value amounted to 0.95 μm.
